Results from article PMC8174488, “4-Arylthiosemicarbazide derivatives as a new class of tyrosinase inhibitors and anti-Toxoplasma gondii agents” (Journal of Enzyme Inhibition and Medicinal Chemistry, 2021).
“And” between values parts separate entries of the source, which are not always exact repeats. Equal entries are not always repeated. Where two headings read alike, the source gives them in different places.

Tests used:
L929 cells [1] = settings: cited from earlier work
Hs27 cell line = test: Cytotoxicity assay (MTT) on human fibroblast Hs27 cells; format: cell-based
Description: (§1) Cell viability assay was performed according to international standards (ISO 10993–5:2009(E)), using tetrazolium salt (MTT, Sigma-Aldrich) and mouse fibroblasts L929 cells. Culture medium RPMI 1640, without phenol red (Biowest, Nuaille, France) supplemented with 10% FBS, 2 mM L-glutamine (Sigma-Aldrich), 100 I.U./mL penicillin, 100 µg/mL streptomycin were used. Briefly, 1 × 10^4/well of L929 cells were placed in 96-well plates and incubated for 24 h at 37 °C and 10% CO2. Afterwards, the old culture medium was replaced with 100 µL of the compound, drug or inhibitor, diluted in culture medium, and the cells treated for 24 h. Additionally, cells were treated with 0.03–4.0% concentration of DMSO as the solvent (data not shown). Then, 50 µL of 1 mg/mL of MTT solution in RPMI 1640 without phenol red was added to each well and incubated for 2 h at 37 °C and 10% CO2. Next, cell culture medium was aspirated carefully and 150 µL of DMSO was added to each well, and the plates were gently mixed. Then, 25 µL 0.1 M glycine buffer (pH 10.5) (Sigma-Aldrich) was added. The optical density at 570 nm using a multi-mode microplate reader SpectraMax® i3 (Syngen, Taipei City, Taiwan) was recorded. The results were expressed as a percentage of viability compared to untreated cells. All experiments were performed in triplicate. Cytotoxicity assay using human fibroblast Hs27 cells was also performed as described above (included in Supplementary Material).

T. gondii RH strain [2] = system: T. gondii RH strain; set-up: method as in PMID 30744161, PMID 31022878; settings: 50% inhibition of T. gondii proliferation in vitro; reported previously, listed for comparison; cited from earlier work
[3] = system: T. gondii tachyzoites RH-GFP strain; test: Influence of compounds during Toxoplasma growth, assay A (compounds present only during penetration); format: cell-based, Toxoplasma gondii; settings: compound at IC50Tg for 3 h during penetration, then 24 h free medium, Hs27 cells, vs untreated cells
L929 cells [4] = test: Cell viability assay (MTT, ISO 10993-5) on L929 mouse fibroblasts; format: cell-based; settings: 24 h, concentration for 30% inhibition of cell proliferation
Description: First, we evaluated the cytotoxic effects of 1b–9b, which is necessary prior to measuring anti-Toxoplasma and Tyr inhibition in order to exclude cytotoxic compounds. […] Cytotoxicity was estimated using mouse fibroblast (L929) cells line via MTT assay, according to the international standards ISO 10993–5:2009(E). […] Therefore, the obtained results were expressed as CC30, which was defined as the highest concentration of the compound that causes 30% damage of cells and was considered according to ISO as non-toxic.
The L929 mouse fibroblast (ATTC® CCL-1™, Manassas, VA) was routinely maintained in RPMI 1640 media (R8758, Sigma-Aldrich, Suffolk, UK), supplemented with 10% foetal bovine serum (Foetal Bovine Serum, ATCC® 30–2020™), 100 I.U./mL penicillin and 100 µg/mL streptomycin (Penicillin-Streptomycin Solution ATCC® 30–2300™). Cells were trypsinised (Trypsin-EDTA Solution, 1X ATCC® 30–2101™) twice a week and seeded at a density of 1 × 10^6 per T25 cell culture flask and incubated at 37 °C and 10% CO2 to achieve a confluent monolayer.
as §1

[5] = system: T. gondii tachyzoites RH-GFP strain; test: Influence of compounds during Toxoplasma growth, assay B (compounds present 24 h after penetration); format: cell-based, Toxoplasma gondii; settings: 3 h infection without compound, then compound at IC50Tg for 24 h, Hs27 cells, vs untreated cells
T. gondii RH strain [6] = test: Antiparasitic assay: T. gondii RH proliferation in Hs27 cells, [3H]uracil incorporation; format: cell-based, Toxoplasma gondii; settings: for IC50: Toxoplasma gondii, HS27; for SR (selectivity ratio): ratio of CC30 (L929) to IC50Tg
Tyr from mushrooms [7] = biological target: T1, Tyr from mushrooms (Agaricus bisporus, UniProt C7FF04); test: Inhibition of tyrosinase activity assay (screening at 25 µM); format: biochemical, mushroom; settings: read-out: Tyrosinase inhibition, at 25 µM compound, L-tyrosine substrate, 10 U Tyr, 30 min
Description: In our study, we used Tyr from mushrooms (T3824, Sigma) for all experiments. All compound dilutions, L-tyrosine a Tyr substrate, and Tyr were prepared in 50 mM phosphate buffer (pH 6.5). […] 100% Tyr activity we used for the sample without addition compound/inhibitor. […] The average results from three experiments are shown.

Tyr from mushrooms [8] = biological target: T1, Tyr from mushrooms; test: Kinetic analysis of the inhibition of tyrosinase (Lineweaver-Burk, Dixon, [L-tyrosine]/V vs [I] plots); format: biochemical, mushroom; settings: Lineweaver–Burk plots
Description: Therefore, these compounds were subsequently subjected to detailed kinetic studies to evaluate inhibition parameters. […] Dixon plots (Figure 7) were used in evaluating the KI values, while the plots of [L-tyrosine]/V vs. [I] (Figure 8), were employed to determine IC50Tyr[50]. [I] represents the concentration of the inhibitor. Rates were monitored spectrophotometrically by detecting changes in absorbance at 492 nm.
Solutions containing 80 µL of 0.625, 1.25, or 2.5 mM L-tyrosine and 50 µL of 20, 100, or 200 µM inhibitor were added to a 96-well plate. Then, solution containing 70 µL of Tyr (10 U) was added and the initial rate of dopachrome formation was determined through detecting the increase in absorbance at the wavelength of 492 nm (Δ492/min). […] In order to determine the inhibition constants KI the Dixon plots were constructed, whereas the plots of [L-tyrosine]/V vs. inhibitor concentration [I] were used for IC50Tyr evaluation. The results from three experiments are shown.

T1 sequence (G1K3P4 entry or part of it): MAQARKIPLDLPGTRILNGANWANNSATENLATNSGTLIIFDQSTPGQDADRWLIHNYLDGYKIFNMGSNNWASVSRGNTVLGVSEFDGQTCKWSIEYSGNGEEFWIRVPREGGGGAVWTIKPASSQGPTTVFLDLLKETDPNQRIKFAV
T1 sequence (C7FF04 1-392): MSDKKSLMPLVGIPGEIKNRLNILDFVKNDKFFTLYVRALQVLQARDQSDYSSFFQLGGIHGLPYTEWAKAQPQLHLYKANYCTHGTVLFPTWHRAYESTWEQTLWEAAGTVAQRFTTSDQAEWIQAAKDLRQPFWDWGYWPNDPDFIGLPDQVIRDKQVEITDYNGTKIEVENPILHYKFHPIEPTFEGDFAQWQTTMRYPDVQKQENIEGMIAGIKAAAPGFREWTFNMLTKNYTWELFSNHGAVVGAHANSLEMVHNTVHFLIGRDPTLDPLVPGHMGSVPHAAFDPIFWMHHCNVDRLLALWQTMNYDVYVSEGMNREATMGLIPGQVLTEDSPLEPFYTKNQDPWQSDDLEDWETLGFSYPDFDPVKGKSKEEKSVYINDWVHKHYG

Row | Structure (SMILES) | CC30 (L929 cells [1]) [µM] | CC30 (Hs27 cell line) [µM] | IC50 (T. gondii RH strain [2]) [µM] | CC30 (L929 cells [4]) | IC50 (T. gondii RH strain [6]) [µM] | CC30 (Hs27 cell line; Hs27 cell line, MTT) [µM] | melting point [°C] | SR (selectivity ratio) (T. gondii RH strain [6]) | further results
1 | Cc1ccc(NC(=S)NNC(=O)c2[nH]cnc2C)cc1 [Compound 8a] | 361.73 | 421.89 | 199 |  |  |  |  |  | 
2 | O=c1cc(CO)occ1O [Kojic acid (KA), Kojic acid, reference compound] |  |  |  | 1558.28 µM | 501 | > 2500 |  |  | number of tachyzoites per PV [3]: significant reduction; CC30 (L929 cells [4]; listed as KA): 1558.0 µM; number of tachyzoites per PV [5]: significant reduction; percentage of infected cells [5]: not observable
3 | O=C(NNC(=S)Nc1ccccc1I)C1CCCC1 [Compound 5b, 1-Cyclopentanoyl-4–(2-iodophenyl)thiosemicarbazide] |  |  |  | 333.25 µM | 128 | 369.69 | 182 to 184 | 2.60 | 
4 | COc1ccccc1NC(=S)NNC(=O)C1CCCC1 [Compound 7b, 1-Cyclopentanoyl-4–(2-methoxyphenyl)thiosemicarbazide] |  |  |  | 886.29 µM | 327 | > 1000 | 176 to 178 | 2.71 | 
5 | COc1ccccc1NC(=S)NNC(=O)c1[nH]cnc1C [Compound 7a] | 452.06 | 498.12 | 108 |  |  |  |  |  | 
6 | O=C(NNC(=S)Nc1ccc([N+](=O)[O-])cc1)C1CCCC1 [Compound 2b, 1-Cyclopentanoyl-4–(4-nitrophenyl)thiosemicarbazide] |  |  |  | 378.39 µM and 378.4 µM | 144 | 405.09 | 170 to 172 | 2.63 | inhibition at 25 µM (Tyr from mushrooms [7]): 45.6 ± 2.8%; number of infected cells (infection index) [3]: significant reduction; number of tachyzoites per PV [3]: significant reduction; character of inhibition (Tyr from mushrooms [8]): mixed character of inhibition; number of tachyzoites per PV [5]: significant reduction; percentage of infected cells [5]: not observable
7 | O=C(NNC(=S)Nc1cc(F)ccc1F)C1CCCC1 [Compound 9b, 1-Cyclopentanoyl-4–(2,5-difluorophenyl)thiosemicarbazide] |  |  |  | 860.66 µM | 321 | > 1000 | 178 to 180 | 2.68 | 
8 | Cc1nc[nH]c1C(=O)NNC(=S)Nc1cccc([N+](=O)[O-])c1 [Compound 1a] | 440.95 | 479.22 | 46.1 |  |  |  |  |  | 
9 | CCc1nc(N)nc(N)c1-c1ccc(Cl)cc1 [Pyrimethamine (PYR), Pyrimethamine, reference compound] |  |  |  | 181.97 µM | 11.5 |  |  | 15.85 | 
10 | Cc1ccc(NC(=S)NNC(=O)C2CCCC2)cc1 [Compound 8b, 1-Cyclopentanoyl-4–(4-methylphenyl)thiosemicarbazide] |  |  |  | 463.37 µM | 181 | 445.10 | 175 to 177 | 2.55 | 
11 | O=C(NNC(=S)Nc1cccc([N+](=O)[O-])c1)C1CCCC1 [Compound 1b, 1-Cyclopentanoyl-4–(3-nitrophenyl)thiosemicarbazide] |  |  |  | 616.52 µM | 180 | 603.98 | 134 to 136 | 3.43 | 
12 | O=C(NNC(=S)Nc1ccccc1Br)C1CCCC1 [Compound 4b, 4–(2-Bromophenyl)-1-cyclopentanoylthiosemicarbazide] |  |  |  | 806.60 µM | 218 | > 1000 | 179 to 181 | 3.70 | 
13 | Cc1nc[nH]c1C(=O)NNC(=S)Nc1ccccc1Br [Compound 4a] | 579.61 | 728.41 | 78.1 |  |  |  |  |  | 
14 | O=C(NNC(=S)Nc1cccc(I)c1)C1CCCC1 [Compound 6b, 1-Cyclopentanoyl-4–(3-iodophenyl)thiosemicarbazide] |  |  |  | 117.68 µM | 54.5 | 135.87 | 173 to 175 | 2.16 | inhibition at 25 µM (Tyr from mushrooms [7]): 43.9 ± 3.4%; number of infected cells (infection index) [3]: significant reduction; number of tachyzoites per PV [3]: significant reduction; character of inhibition (Tyr from mushrooms [8]): mixed character of inhibition; number of tachyzoites per PV [5]: significant reduction; percentage of infected cells [5]: not observable
15 | O=C(NNC(=S)Nc1ccccc1Cl)C1CCCC1 [Compound 3b, 4–(2-Chlorophenyl)-1-cyclopentanoylthiosemicarbazide] |  |  |  | 554.73 µM | 368 | 512.31 | 178 to 180 | 1.51 | 
16 | Cc1nc[nH]c1C(=O)NNC(=S)Nc1cc(F)ccc1F [Compound 9a] | 509.11 | 612.48 | 172 |  |  |  |  |  | 
17 | Cc1nc[nH]c1C(=O)NNC(=S)Nc1ccccc1Cl [Compound 3a] | 462.12 | 502.21 | 115 |  |  |  |  |  | 
18 | Cc1nc[nH]c1C(=O)NNC(=S)Nc1ccccc1I [Compound 5a] | 253.17 | 278.72 | 50.6 |  |  |  |  |  | 
